The values below come from patent US11634686B2, “Method of producing naive pluripotent stem cells” (priority 2016, dated 2023).

Assay [1] deals with primed hPSCs. Nature of the assay: Conversion of hPSCs from primed to naive pluripotency (Nanog+ cells among hNA+ human cells, dome-shaped colonies). It is filed as cell-based. The settings on record: for effect of removal of the component from 2iLI medium on Nanog+ cells and mESC-like colonies: primed H9 after Torin1 3 hr, 5 days culture on MEF. The method, then: Primed hPSCs were treated with 10 μM ROCK inhibitor Y27632 (Abcam) overnight in hESC medium. After being washed twice in phosphate-buffered saline (PBS), primed hPSCs were cultured in 2iLI medium with 10 μM Torin1 (Tocris) for 3 hours. 2iLI medium contained 50% glucose-free DMEM/F12 (Life Technologies) and 50% glucose-free Neurobasal (Life Technologies), 5 mM glucose, 1 mM glutamine, 1% NEAA, 0.1 mM […], 100 U/ml penicillin, 100 μg/ml streptomycin, 5 mg/mL bovine serum albumin (Sigma) to maintain osmolarity, 20 ng/mL recombinant human LIF (Millipore), […] human insulin (Sigma), 1 μM PD0325901 (PD, EMD Millipore), and 3 μM CHIR99021 (CH, Stemgent). For N004 iPSCs, 2iLI medium with 0.8 μM CHIR99021 was used instead. Then hPSCs were trypsinized into single cells using TrypLE (Life Technologies) for 5 min at 37° C. The single cells were plated on MEF feeders (5-6×10^4/cm^2) in 2iLI medium (without Torin1), which was changed daily. Small, bright, dome-shaped colonies appeared in 4-5 days and were picked manually at day 5-7 for dissociation by TrypLE into single cells, which were plated on fresh MEF cells. After several manual passages, mouse ESC-like colonies were uniformly seen and passaged every 3 days with TrypLE and maintained in 2iLI media (without Torin1). Immunostaining was performed using standard protocol to detect various antigens in cultured cells or frozen tissue sections. Briefly, cells or tissue sections were fixed in 4% paraformaldehyde (Sigma) for 20 min, treated with 0.1% Triton X-100 for 15 min at room temperature for permeabilization, blocked in 3% BSA for 1 hour at room temperature, and then incubated with the indicated primary antibodies (Table S1) overnight at 4° C. and secondary antibodies for 1 h at 37° C. Secondary antibodies were AlexaFluor 488, 594, and 647 (1:1,000, Thermo fisher Scientific). Alkaline phosphatase (AP) staining was performed using the Alkaline Phosphatase Kit (Millipore). Diaminobenzidine (DAB) staining was also used to detect GFP expression in frozen embryo sections according to manufacturer's protocol (Vector Laboratories). Briefly, the frozen sections on slides were thawed at room temperature for 5 min. Then the slides were treated with 0.3% H2O2 solution in PBS at room temperature for 10 min to block endogenous peroxidase activity, and then treated with 3% BSA for 45 min for blocking. The sections were incubated with primary antibody (anti-GFP) in 0.1% BSA for 30 min at room temperature, rinsed briefly in PBS 3 times (5 min each), and then incubated with biotinylated secondary antibody for 30 min followed by PBS rinsing for 3 times (5 min each). The sections were incubated with VECTASTAIN ABC reagent (Vector Laboratories) for 30 min, washed with PBS for 5 min. The sections were incubated with 100 μl peroxidase substrate solution (Sigma, D4293) on the slide under microscope until desired staining intensity and then washed with PBS to remove the substrate solution. For live imaging of mitochondria, primed or naive hPSCs were incubated in prewarmed hESC medium (for primed hPSCs) or 2iLI medium (for naive hPSCs) containing 50 nM MitoTracker Green FM or 100 nM TMRE (Life Technologies) for 15 min at 37° C. Then the staining medium was replaced with the corresponding prewarmed medium without dyes. Cells were then imaged on a Leica DMI6000B fluorescence microscope. Quantification of LC3II puncta was performed using NIH ImageJ with the AUTOCOUNTER pluggin, which calculates the percentage of cell area covered by LC3II puncta.

Assay [2] relates to TFE3. Nature of the assay: Torin1/rapamycin-induced nuclear translocation of TFE3 (immunostaining). The settings on record: primed H9 hESCs; inhibition of mTor. It is filed as cell-based, human. The protocol:
We named this medium 2iLI.
(§1) Immunostaining was performed using standard protocol to detect various antigens in cultured cells or frozen tissue sections. Briefly, cells or tissue sections were fixed in 4% paraformaldehyde (Sigma) for 20 min, treated with 0.1% Triton X-100 for 15 min at room temperature for permeabilization, blocked in 3% BSA for 1 hour at room temperature, and then incubated with the indicated primary antibodies (Table S1) overnight at 4° C. and secondary antibodies for 1 h at 37° C. Secondary antibodies were AlexaFluor 488, 594, and 647 (1:1,000, Thermo fisher Scientific). Alkaline phosphatase (AP) staining was performed using the Alkaline Phosphatase Kit (Millipore). Diaminobenzidine (DAB) staining was also used to detect GFP expression in frozen embryo sections according to manufacturer's protocol (Vector Laboratories). Briefly, the frozen sections on slides were thawed at room temperature for 5 min. Then the slides were treated with 0.3% H2O2 solution in PBS at room temperature for 10 min to block endogenous peroxidase activity, and then treated with 3% BSA for 45 min for blocking. […] Cells were then imaged on a Leica DMI6000B fluorescence microscope. Quantification of LC3II puncta was performed using NIH ImageJ with the AUTOCOUNTER pluggin, which calculates the percentage of cell area covered by LC3II puncta.

For assay [3], the system named is primed H9 hESCs. Nature of the assay: Autophagy by costaining for LC3 and Lamp1 (LC3II puncta). It is filed as cell-based, human. The protocol: as §1

Consider `Cc1c[nH]c(-c2cnc(NCCNc3ccc(C#N)cn3)nc2-c2ccc(Cl)cc2Cl)n1` [CHIR99021], for which the “optimized concentration for conversion of N004 iPSCs to naive state” value in assay [1] (N004 iPSCs, all other conditions as in 2iLI medium, percentage of human cells positive for Nanog) amounted to 0.8 µM. The “effect of removal of the component from 2iLI medium on Nanog+ cells and mESC-like colonies” value (“effect of removal of the component” below) in assay [1] was “drastically reduced Nanog^+ cells and mESC-like colonies”. For the compound `O=C(NOC[C@H](O)CO)c1ccc(F)c(F)c1Nc1ccc(I)cc1F` [PD, PD0325901], the “effect of removal of the component” value in assay [1] is “drastically reduced Nanog^+ cells and mESC-like colonies”. For `CNC(=O)c1ccccc1Oc1nc(Nc2cc(OC)c(OC)c(OC)c2)ncc1Br` [SBI-0206965], the “effect on primed-to-naive conversion of blocking autophagy” value in assay [1] (primed H9 treated 3 hr, with 2iLI and Torin1, Nanog+ of hNA+ cells after five days) is reported as “not significantly affected”. Take `CCC(=O)N1CCN(c2ccc(-n3c(=O)ccc4cnc5ccc(-c6cnc7ccccc7c6)cc5c43)cc2C(F)(F)F)CC1` [Torin1]: the “translocation of TFE3 from cytoplasm to nucleus” value in assay [2] is “induced rapid translocation of TFE3 from cytoplasm to nucleus”. Also, in assay [1] (transient treatment (10 μM for 3 hr) in 2iLI medium, 5 mM glucose, 5% O2), the “conversion of hPSCs from primed to naive pluripotency” value is “converted hPSCs from primed to naive pluripotency”. Also, the “induction of autophagy, combined treatment” value in assay [3] (2iLI medium with 5 mM glucose and 10 μM Torin1 for 3 hr) is “induced autophagy most prominently”. In assay [3] (primed H9 in hESC medium, mTor inhibition for 3 hr), the induction of autophagy result is given as “induced autophagy”. Take “human LIF: recombinant human Leukemia Inhibitory Factor, component of 2iLI medium”: the “effect of removal of the component” value in assay [1] is “drastically reduced Nanog^+ cells and mESC-like colonies”.

For the compound “human insulin: human insulin, component of 2iLI medium”, the “percentage of Nanog+ cells among all human cells (hNA+) on replacing N2 and B27 supplements” value in assay [1] (primed H9, Torin1 10 μM 3 hr, human insulin 18 μg/ml, about 5 days on MEF feeders) is “much higher percentage of Nanog^+ cells”. For the same compound, the “effect of removal of the component” value in assay [1] was “drastically reduced Nanog^+ cells and mESC-like colonies”.
